Laboratory results taken from US10259815B2, “Gabaergic ligands and their uses” (UWM Research Foundation, Inc., priority 2015, dated 2019).
“Also recorded” adds a separate entry of the source.

How the values were obtained:
[1] = tested on: Male NIH Swiss mice; test: Marble burying assay (anxiolytic); assay type: in vivo
Experimental: Male NIH Swiss mice (n=10) were dosed i.p. with vehicle (1% carboxymethyl cellulose) or one of the test compounds (10 or 30 mg/kg) 30 minutes prior to being tested in the marble burying assay.
The marble burying assay is designed to measure the anxiolytic-effect of a compound. When mice are nervous, they will bury marbles. As there becomes a decrease in amount of marbles buried, the better anxiolytic effect of a compound.
The marble burying assay is used to determine the anxiolytic activity of a given compound. Mice are placed in a tub containing 20 marbles placed over a bed of sawdust. Defensive burying (Broekkamp 1986) is the natural reaction for the mice. When given an anxiolytic, such as diazepam, the mice are less likely to defensively bury the marbles.
Experiments were carried out by the methods described in Li et al. (Life Sciences 2006, 78, 1933-1939). Separate groups of mice were used in these experiments and were conducted in a dimly lit testing room. After 60 min acclimation to the experimental room, mice were placed in a 17×28×12 cm high plastic tub with […] sawdust shavings (Harlan Sani-Chips, Harlan-Teklad, Indianapolis, Ind., USA) on the floor, which was covered with 20 blue marbles (1.5 cm diameter) placed in the center. […] The number of marbles buried (⅔ covered with sawdust) was counted and submitted to inter-observer reliability assessment.

[2] = Single-dose pharmacokinetics and brain concentrations, IV and IP, rats; assay type: in vivo, Sprague-Dawley rats
Experimental: The single-dose pharmacokinetics were determined in femoral artery/vein cannulated Sprague-Dawley rats. The rats received a 1 mg/kg intravenous and 10 mg/kg oral gavage dose of compound. Blood samples were collected at 0.08 (IV only), 0.25, 0.5, 1, 2, 4, 8, 12, and 24 hours after initiation of compound administration. Plasma was obtained via centrifugation. Plasma samples were then analyzed by LC-MS, and pharmacokinetic parameters calculated using Watson (version 7.4; Thermo Fisher Scientific). Calculated parameters include clearance (Cl), volume of distribution (Vdss), area-under-the-curve (AUC), half-life (T½), maximum plasma concentration (Cmax), time of maximum concentration (Tmax), and bioavailability (% F).
Male Sprague-Dawley rats were given either a 1 mg/kg […] dose or 10 mg/kg i.p. dose. Plasma concentrations were taken at 0.08, 0.25, 0.5, 1.0, 2, 4, 8, 12, and 24 hours (three rats per time point for each dose).

[3] = tested on: Male Sprague-Dawley rats; test: scMET-induced seizure protection, rats; assay type: in vivo; conditions: i.p. 30 minutes prior; pentylenetetrazole 35 mg/kg
Experimental: A 35 mg/kg subcutaneous dose of pentylenetetrazole was given and the percent outcome of seizure was recorded. Results were analyzed using ANOVA (Dunnett's test: *P<0.05).
Test subjects were given a test compound, followed by a 35 mg/kg dose of MET and observed for convulsions (FIG. 7).
Results were analyzed using ANOVA (Dunnett's test: *P<0.05).

[4] = tested on: Mice; test: scMET test for anticonvulsant activity, mice; assay type: in vivo
Experimental: Mice were then dosed i.p. with 5, 10, 25, or 50 mg/kg of KRM-II-81.

## C#Cc1ccc2c(c1)C(c1ccccn1)=NCc1c(-c3cnco3)ncn1-2 [KRM-II-81, 5-(8-Ethynyl-6-(pyridin-2-yl)-4H-benzo[f]imidazo[1,5-a][1,4]diazepin-3-yl)oxazole]
[1]; 10 and 30 mg/kg i.p.
  sedation observed in marble burying assay: without observed signs of sedation
[1]; mouse, in vivo
  anxiolytic activity in marble burying assay: better anxiolytic than HZ-166; also recorded: good activity in the marble burying
[2]; 1 mg/kg IV dose in rat
  mean clearance: 21.7 mL/min/kg
[2]; 10 mg/kg IP dose in rat
  mean AUC: 16.5 µM·h
  mean IP T ½: 3.1 h
  mean bioavailability: 69%
[2]; 10 mg/kg IP dose in rat, plasma
  Cmax: 3.09 µM
[2]; Sprague-Dawley, plasma, 1 mg/kg IV dose in rat, read-out: mean T ½ (converted)
  half-life: 1.4 h
[2]; Sprague-Dawley, plasma, 1 mg/kg IV dose in rat, read-out: mean Vdss
  Vd: 1.4 L/kg
[2]; male, Sprague-Dawley, rat, brain, intraperitoneal, 10 mg/kg IP dose, 1 hour
  concentration at 1 h: 6.63 µM
[2]; male, Sprague-Dawley, rat, brain, intraperitoneal, 10 mg/kg IP dose, 4 hour
  concentration at 4 h: 2.05 µM
[2]; male, Sprague-Dawley, rat, brain/plasma (unbound), 10 mg/kg IP dose, 1 hour
  Kp uu at 1 h: 0.53
[2]; male, Sprague-Dawley, rat, brain/plasma (unbound), 10 mg/kg IP dose, 4 hour
  Kp uu at 4 h: 0.67
[3]
  dose achieving significant protection against scMET seizures: 30 mg/kg
[4]; Dose 5 mg/kg i.p.
  Protected (animals protected/tested): 0/8
[4]; Dose 10 mg/kg i.p.
  Protected (animals protected/tested): 5/8
[4]; Dose 25 mg/kg i.p.
  Protected (animals protected/tested): 7/8
[4]; Dose 50 mg/kg i.p.
  Protected (animals protected/tested): 8/8
[4]; Mus musculus, ip, half hour time point, mice
  ED50: 10.9 mg/kg
